Values quoted from earlier work, collected in PMC5228037, “Discovery and Mechanistic Characterization of Selective Inhibitors of H2S-producing Enzyme: 3-Mercaptopyruvate Sulfurtransferase (3MST) Targeting Active-site Cysteine Persulfide” (Scientific Reports, 2017).

Tests used:
3MST = conditions: cited from earlier work; for Inhibition constant Ki for 3MST: substrate-like inhibitors
[1] = design: method as in PMID 26269587; conditions: cited from earlier work

Compound	Inhibition constant Ki for 3MST (3MST)	other results
CC(=O)C(=O)O [pyruvate]	several	–
N[C@@H](CSS)C(=O)O [cysteine persulfide]	–	calculated pKa [1]: 4.34
O=C(O)CCS [3-mercaptopropionic acid]	several	–
O=C(O)C(=O)CS [3MP, 3-mercaptopyruvate]	–	Km (3MST; substrate, read-out: Michaelis constant Km for 3MST): 4.08 mM
